From publication PMC5829251, “NAD^+ analog reveals PARP-1 substrate-blocking mechanism and allosteric communication from catalytic center to DNA-binding domains” (Nature Communications, 2018)
Where “and” joins values, the source holds several entries; their conditions need not be identical. Equal values may be shown once. Entries after “also recorded” stand apart in the source; their conditions may differ.

How the values were obtained:
full-length PARP-1 = target: T1, full-length PARP-1 (Homo sapiens, UniProt P09874); assay: Colorimetric assay of full-length PARP-1 DNA-dependent activity; type: biochemical; conditions: for IC50: 20 nM PARP-1, 40 nM DNA (18-bp duplex), 50 μM NAD+ (99:1 NAD+:bio-NAD+)
T1 construct: Full-length PARP-1 WT (residues 1–1014) was cloned in pET28 vector; made in house; host or cells: E. coli
T1 sequence (P09874 whole entry, the tested form may be a part): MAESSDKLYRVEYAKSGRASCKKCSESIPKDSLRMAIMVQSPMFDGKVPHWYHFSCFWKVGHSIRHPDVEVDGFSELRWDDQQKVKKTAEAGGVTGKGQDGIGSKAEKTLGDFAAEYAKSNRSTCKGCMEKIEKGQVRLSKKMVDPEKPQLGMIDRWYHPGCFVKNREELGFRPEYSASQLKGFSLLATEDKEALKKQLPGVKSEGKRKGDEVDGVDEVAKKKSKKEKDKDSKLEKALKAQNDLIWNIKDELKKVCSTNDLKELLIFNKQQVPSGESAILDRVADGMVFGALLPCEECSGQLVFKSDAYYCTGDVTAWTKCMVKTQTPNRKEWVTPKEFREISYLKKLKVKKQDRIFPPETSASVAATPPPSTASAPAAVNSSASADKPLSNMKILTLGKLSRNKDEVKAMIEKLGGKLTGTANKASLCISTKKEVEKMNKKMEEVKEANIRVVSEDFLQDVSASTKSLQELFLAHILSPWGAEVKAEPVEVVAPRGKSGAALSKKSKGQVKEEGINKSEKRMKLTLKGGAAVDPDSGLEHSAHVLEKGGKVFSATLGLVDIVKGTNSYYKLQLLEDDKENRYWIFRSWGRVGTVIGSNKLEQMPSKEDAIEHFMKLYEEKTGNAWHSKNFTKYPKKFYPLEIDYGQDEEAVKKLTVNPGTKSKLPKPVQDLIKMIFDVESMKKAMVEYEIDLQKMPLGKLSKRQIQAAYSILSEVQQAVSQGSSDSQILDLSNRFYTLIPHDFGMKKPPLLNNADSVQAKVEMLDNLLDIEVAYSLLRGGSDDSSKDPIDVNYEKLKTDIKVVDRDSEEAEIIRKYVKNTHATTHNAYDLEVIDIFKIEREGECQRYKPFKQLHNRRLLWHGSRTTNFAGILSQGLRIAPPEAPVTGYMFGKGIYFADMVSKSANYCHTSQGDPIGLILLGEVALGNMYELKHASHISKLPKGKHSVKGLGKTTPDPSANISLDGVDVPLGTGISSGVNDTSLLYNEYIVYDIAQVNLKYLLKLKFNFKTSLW
Protocol: The colorimetric assay was performed as described, [28] using 20 nM of protein and 40 nM DNA (18-bp duplex). A mixture of NAD^+ and biotinylated NAD^+ (bio-NAD^+) was used at a 99:1 ratio and a final concentration of 50 µM. Reactions were allowed to proceed for 5 min before quenching. Three independent experiments were performed.

PARP-1 CAT domain WT = target: T2, PARP-1 CAT domain WT (Homo sapiens, UniProt P09874); assay: Differential scanning fluorimetry (DSF), PARP-1 CAT WT; type: binding; conditions: for change of apparent TM of PARP-1 CAT WT (evidence of binding): 5 μM protein, various amounts of compound; for TM: in °C (unit assumed)
T2 construct: The PARP-1 CAT WT (residues 661–1014) was cloned in pET28 vector; made in house; host or cells: E. coli
T2 sequence (P09874 661-1014): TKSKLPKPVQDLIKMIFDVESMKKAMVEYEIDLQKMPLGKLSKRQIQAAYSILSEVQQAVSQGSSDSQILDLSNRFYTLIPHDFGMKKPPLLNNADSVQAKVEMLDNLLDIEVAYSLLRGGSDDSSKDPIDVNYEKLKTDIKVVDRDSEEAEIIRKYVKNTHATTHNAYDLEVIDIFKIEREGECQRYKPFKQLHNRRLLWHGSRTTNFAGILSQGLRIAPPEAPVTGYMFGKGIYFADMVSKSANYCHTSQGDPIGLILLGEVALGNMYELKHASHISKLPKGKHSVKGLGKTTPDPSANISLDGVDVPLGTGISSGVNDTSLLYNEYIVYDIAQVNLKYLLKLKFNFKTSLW
Protocol: DSF experiments were performed as described, [13] using 5 µM protein, 2.5 µM DNA when indicated and various concentrations of compound (BAD, carba-NAD^+, benzamide, and ADP-ribose) as indicated in Fig. 1 and Fig. 3. Experiments were performed on a Roche LightCycler 480 RT-PCR. Reactions including DNA were performed with a 26- or 28-base pair (bp) unphosphorylated oligonucleotide for PARP-1, a 28-bp 5´-phosphorylated (5´P) oligonucleotide for PARP-2, and a 47-bp oligonucleotide including a central 5´P nick for PARP-3^13 in the following buffer: 25 mM Hepes pH 8.0, 150 mM NaCl, 1 mM EDTA, and 0.1 mM TCEP. Reactions with PARP-3 were conducted at lower ionic strength to allow binding to DNA as described (25 mM Hepes pH 8.0, 50 mM NaCl, 1 mM EDTA and 0.1 mM TCEP)[13]. ΔTM values were calculated by subtracting the TM determined for the protein in the absence of compound from the TM determined in the presence of compound. Experiments were performed in triplicate and a Boltzmann sigmoid was fit to the data to determine the TM values (KaleidaGraph).

PARP-1 CAT ΔHD = target: T3, PARP-1 CAT ΔHD (Homo sapiens, UniProt P09874); assay: ITC, PARP-1 CAT ΔHD; type: binding; conditions: for n (stoichiometry): CAT ΔHD; for Kd: CAT ΔHD 50 μM, compound 525 μM titrated, 25°C
T3 construct: a pET28 construct coding for PARP-1 residues 661-1011; made in house; host or cells: E. coli
T3 sequence (P09874 with tags, fused parts or gaps): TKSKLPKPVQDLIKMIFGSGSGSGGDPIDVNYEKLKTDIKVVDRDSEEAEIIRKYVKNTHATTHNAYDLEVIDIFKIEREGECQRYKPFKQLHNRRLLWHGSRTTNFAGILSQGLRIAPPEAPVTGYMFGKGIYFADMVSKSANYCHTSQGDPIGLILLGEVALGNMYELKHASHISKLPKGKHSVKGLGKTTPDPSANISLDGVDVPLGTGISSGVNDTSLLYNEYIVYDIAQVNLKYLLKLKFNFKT
Protocol: ITC experiments were performed using a MicroCal iTC200 calorimeter (GE Healthcare). BAD or benzamide at 525 μM was titrated into PARP-1 protein (50 μM for CAT WT and CAT ΔHD, 40 μM for full-length PARP-1 WT and mutants) or PARP-1 protein with DNA (20–40 μM) at 25°C. Prior to the experiment, proteins and DNA were dialyzed in 25 mM Hepes pH 8.0, 150 mM NaCl, 1 mM EDTA, and 0.1 mM TCEP. BAD and benzamide were diluted in the dialysis buffer. PARP-1/DNA complexes were assembled and incubated at RT for 30 min prior to performing the experiment. Experiments were typically designed as follows: a first injection of 0.2 μL was followed by 16 injections of 2.5 μL with a spacing of 100 s between injections. Excess heat upon each injection was integrated using an automatically adjusted base line and derived values corrected by heat of dilution. Data analysis and curve fitting were conducted using Origin 7 software. The ITC experiment for each sample was performed either two (PARP-1 WT with benzamide, PARP-1 E763/D766/D770A with benzamide, PARP-1 D766/D770A with BAD) or three times (the remaining eight samples). Table 2 lists the average KD value and stoichiometry (n) for the replicates, and the reported errors are the calculated standard deviations (representing the range of values for experiments repeated two times). We anticipate that the sub-stoichiometric n values for CAT constructs results from either the active fraction being < 100%, or the protein concentration determination being not entirely accurate. The analysis of full-length PARP-1 yielded n values around the expected value of 1.

[1] = Figure 1e, CAT WT 5 μM, compound 25 µM, TM without compound 51.58
[2] = Figure 1e, CAT WT 5 μM, compound 150 µM, TM without compound 51.58
[3] = Figure 1e, CAT WT 5 μM, compound 750 µM, TM without compound 51.58
[4] = Figure 1e, CAT WT 5 μM, compound 1500 µM, TM without compound 51.58

Row | Compound | IC50 (full-length PARP-1) | change of apparent TM of PARP-1 CAT WT (evidence of binding) (PARP-1 CAT domain WT) | increase in TM of PARP-1 CAT containing the HD (PARP-1 CAT domain WT; 4 mM BAD) | TM (PARP-1 CAT domain WT; [1]) | TM (PARP-1 CAT domain WT; [2]) | TM (PARP-1 CAT domain WT; [3]) | TM (PARP-1 CAT domain WT; [4]) | TM (PARP-1 CAT domain WT; Figure 1d, CAT WT 5 μM, compound 50 µM, TM without compound 51.23) | TM (PARP-1 CAT domain WT; Figure 1d, CAT WT 5 μM, compound 250 µM, TM without compound 51.23) | TM (PARP-1 CAT domain WT; Figure 1d, CAT WT 5 μM, compound 1250 µM, TM without compound 51.23) | TM (PARP-1 CAT domain WT; Figure 3d, PARP-1 CAT 5 μM, BAD 4 mM, TM without BAD 51.04) | n (stoichiometry) (PARP-1 CAT ΔHD) | Kd (PARP-1 CAT ΔHD) | inhibition of DNA damage-dependent activity of full-length PARP-1 (full-length PARP-1; 20 nM PARP-1, 40 nM DNA, 50 μM NAD+)
1 | NC(=O)c1cccc(C2OC(COP(=O)(O)OP(=O)(O)OCC3OC(n4cnc5c(N)ncnc54)C(O)C3O)C(O)C2O)c1 (stereo not shown) [BAD, benzamide adenine dinucleotide] | 8.6 µM and 8.63 µM | neither BAD nor carba-NAD^+ changed the apparent TM; also recorded: did not show evidence of binding | no increase in TM | 51.48 | 51.45 | 51.64 | 51.60 | 51.06 | 51.09 | 51.30 | 51.21 | 0.63 + /− 0.09 | 5.87 µM | 
2 | NC(=O)c1ccccc1 [benzamide] | 4.6 µM and 4.62 µM | increased the TM |  | 52.53 | 54.28 | 54.86 | 57.12 |  |  |  |  | 0.39 + /− 0.01 | 3.21 µM | inhibits to a similar extent as the entire BAD molecule
